According to US3969385A, “Ethyl 10-methoxy-3,7,11-trimethyldodeca-2,4-dienoate” (Zoecon Corporation, priority 1974, dated 1976):

Legend:
Format in all cases: in vivo
[1] = tested on: Greater Wax Moth (Galleria mellonella) pupae; assay: Greater Wax Moth (Galleria mellonella) pupae, retention of pupal characters (graded-response score); conditions: for ID50: Galleria mellonella pupae <24 h old, 1 μl acetone solution applied to mouth-parts, scored after 10 days at 31°, 50% effect level; for Galleria ID50: Table 1 summary
Procedure: Greater Wax Moth (Galleria mellonella) pupae less than 24-hours old were collected after mature larvae from a mass colony were allowed to pupate in glass tubes treated with Siliclad solution (modification of a technique described by De Wilde et al., 1968) and then freed of the cocoon with a dilute Chlorox solution. Starvation of mature larvae was employed to produce highly synchronous pupation. One microliter of acetone solution containing 100, 10, 1, 0.1, 0.01, or 0.001μg of compound was applied to the mouth-parts of each test pupa. In each test series, the control pupae were treated only with 1 microliter of acetone. Treated pupae were allowed to develop for 10 days at 31° and then scored for both retention of pupal characters and adult emergence. For the retention of pupal characters, the following scoring system was used: 0=normal adult; 1=minor pupal rudimentary mandibles only; 2=as in 1, but also pupal cuticle patches at the base of the proboscis; 3=extensive pupal cuticle formation at base of proboscis, slight pupal characters in intersegmental membranes in legs; 4=proboscis entirely pupal, larger than normal, legs with extensive pupal zones; 5=merging pupal bands on legs, specimen with only a few adult setae, essentially "a second pupa."
The graded-response score was calculated as a percentage of the maximum attainable (n×5) and plotted against the dose on semilogarithmic paper. The ID50 dose is taken from the intersection of this plotted line with the 50% effect level.

Philosamia cynthia eggs = assay: Philosamia cynthia eggs, hatch prevention; conditions: Table 1 summary
Procedure: Philosamia cynthia eggs less than 24-hours old were removed from the colony and placed on black electrical tape, 15 eggs per tape. One microliter of acetone solution containing […] of compound was applied to each egg. The control eggs were treated only with acetone. The eggs were kept at 28°C for 10 days at which time the number of eggs hatched was observed and plotted against the dosed on semilogarithmic paper. The ID50 dose is taken from the intersection of this plotted line with the 50% hatch prevented line.

[2] = tested on: Tobacco budworm (Heliothis virescens) larvae; assay: Tobacco budworm (Heliothis virescens) larvae, diet test, morphogenetic scoring; conditions: for ID50: Heliothis virescens unfed first instar larvae, compound mixed in diet, 25°, 16 hr photophase; for Heliothis ID50: Table 1 summary, in diet
Procedure: Tobacco budworm (Heliothis virescens) larvae were reared in mass culture on a modified Van der Zandt artificial diet based on agar, lima beans, split peas, torula yeast plus vitamins, minerals and bacteriostatic additives. Compounds to be tested were mixed as acetone solutions with this diet while it was still warm and not yet solidified (7.5 ml. of medium in 15 ml. tubes). Unfed first instar larvae were collected from the mass rearing and distributed in the glass tubes (one larva per tube, 15 tubes per dose level). The tubes with larvae were then capped with a firm cotton plug and placed on racks in a culture room at 25° and 16 hr photophase (low intensity fluorescent light). The normal interval until pupation under these conditions was ca. 16 days.
Individual specimens were preserved in ethanol within a few days after pupation and stored until the entire series was thus preserved. The test results were then evaluated with the following scoring system: 0= normal pupa; 1=pupa of normal shape and appearance except for very minor abnormalities such as minute rudiments of larval mouthparts, larval tubercles, etc. The ultimate viability of these pupa was not investigated; 2=unviable intermediates between larvae and pupae ranging from almost perfect supernumerary larval instars (frequently with some pupal cuticle on the antennae only) to pupae with pronounced prolegs, patches of larval cuticle, etc. […] The results were added and expressed as a percentage of the possible total. ID50 doses were determined by interpolation on semilogarithmic paper. Dead larvae were generally excluded from the score, unless death was obviously a consequence of morphogenetic abnormalities and the specimens could be scored as above.

SMILES	ID50 [1]	Galleria ID50 [1]	Cynthia ID50 (Philosamia cynthia eggs)	ID50 [2]	Heliothis ID50 [2]
CCOC(=O)C=C(C)C=CCC(C)CCCC(C)(C)OC (stereo not shown) [ethyl 11-methoxy-3,7,11-trimethyldodeca-2,4-dienoate]	0.180 μg per pupa	0.180 μg/pupa	0.00077 μg/egg	0.340 parts per million	0.340 ppm
CCOC(=O)C=C(C)C=CCC(C)CCC(OC)C(C)C (stereo not shown) [ethyl 10-methoxy-3,7,11-trimethyldodeca-2,4-dienoate]	0.0030 μg per pupa	0.0030 μg/pupa	0.000032 μg/egg	0.024 parts per million	0.024 ppm
